Measurements: EP2526935A1, “Hydrazidomycins” (Oncotest GmbH, priority 2011, dated 2012)

Experiments:
Type in all cases: cell-based
[1] = system: panel of 12 human tumor cell lines; assay: modified propidium iodide cytotoxicity assay, panel of 12 human tumor cell lines; conditions: for IC50: geometric mean over panel of 12 human tumor cell lines, read-out: Cytotoxic potency (geometric mean IC50)
From the text: (§1) Antiproliferative and cytotoxic assays. A modified propidium iodide assay was used to determine the cytotoxic activity of compounds hydrazidomycin A, B, and C against 12 to 42 cell lines derived from solid human tumors. The test procedure has been as is known in the art. Cell lines tested were derived from patient tumors engrafted as a subcutaneously growing tumor in NMRI nu/nu mice, or obtained from the American Type Culture Collection, Rockville, MD, USA, National Cancer Institute, Bethesda, MD, USA, or Deutsche Sammlung von Mikroorganismen und Zellkulturen, Braunschweig. The IC50 was determined by four parameter non-linear curve fit after plotting compound concentration versus fluorescence intensity, and is given as the concentration of test compound that gives a response (inhibition of cell growth) half way between the top and bottom plateau of the sigmoidal concentration-response curve (i.e. the inflection point of the curve).

[2] = system: panel of 42 human tumor cell lines; assay: modified propidium iodide cytotoxicity assay, panel of 42 human tumor cell lines; conditions: for IC50: mean over panel of 42 tumor cell lines, 15 histotypes; for IC50 values in sensitive cell lines, fold lower than the mean IC50 of all cell lines tested: on average, sensitive cell lines versus all cell lines
From the text: as §1

[3] = system: LXFA 526L; assay: modified propidium iodide cytotoxicity assay; conditions: Homo sapiens, Lung, non-small cell
From the text: as §1

[4] = system: PC-3M; assay: modified propidium iodide cytotoxicity assay; conditions: Homo sapiens, Prostate
From the text: as §1

[5] = system: LXFL 529L; assay: modified propidium iodide cytotoxicity assay; conditions: Homo sapiens, Lung, non-small cell
From the text: as §1

[6] = system: TE671; assay: modified propidium iodide cytotoxicity assay; conditions: Homo sapiens, TE-671, Sarcoma
From the text: as §1

[7] = system: RKO; assay: modified propidium iodide cytotoxicity assay; conditions: Homo sapiens, Colon
From the text: as §1

[8] = system: PAXF 546L; assay: modified propidium iodide cytotoxicity assay; conditions: Homo sapiens, Pancreas
From the text: as §1

[9] = system: BXF 1218L; assay: modified propidium iodide cytotoxicity assay; conditions: Homo sapiens, Bladder
From the text: as §1

[10] = system: MAXF 401NL; assay: modified propidium iodide cytotoxicity assay; conditions: Homo sapiens, Breast
From the text: as §1

[11] = system: RXF 486L; assay: modified propidium iodide cytotoxicity assay; conditions: Homo sapiens, Kidney
From the text: as §1

[12] = system: RXF 393NL; assay: modified propidium iodide cytotoxicity assay; conditions: Homo sapiens, Kidney
From the text: as §1

[13] = system: CAL-27; assay: modified propidium iodide cytotoxicity assay; conditions: Homo sapiens, Head and neck
From the text: as §1

[14] = system: T-24; assay: modified propidium iodide cytotoxicity assay; conditions: Homo sapiens, Bladder
From the text: as §1

[15] = system: Saos-2; assay: modified propidium iodide cytotoxicity assay; conditions: Homo sapiens, Sarcoma
From the text: as §1

[16] = system: HCT-116; assay: modified propidium iodide cytotoxicity assay; conditions: Homo sapiens, Colon
From the text: as §1

[17] = system: PANC-1; assay: modified propidium iodide cytotoxicity assay; conditions: Homo sapiens, Pancreas
From the text: as §1

[18] = system: MKN45; assay: modified propidium iodide cytotoxicity assay; conditions: Homo sapiens, MKN-45, Stomach
From the text: as §1

[19] = system: HT-29; assay: modified propidium iodide cytotoxicity assay; conditions: Homo sapiens, Colon
From the text: as §1

[20] = system: MDA-MB-231; assay: modified propidium iodide cytotoxicity assay; conditions: Homo sapiens, Breast
From the text: as §1

[21] = system: RXF 1781L; assay: modified propidium iodide cytotoxicity assay; conditions: Homo sapiens, Kidney
From the text: as §1

[22] = system: LXFA 629L; assay: modified propidium iodide cytotoxicity assay; conditions: Homo sapiens, Lung, non-small cell
From the text: as §1

[23] = system: LXFL1121L; assay: modified propidium iodide cytotoxicity assay; conditions: Homo sapiens, LXFL 1121L, Lung, non-small cell
From the text: as §1

[24] = system: PXF 698L; assay: modified propidium iodide cytotoxicity assay; conditions: Homo sapiens, Mesothelioma
From the text: as §1

[25] = system: DU-145; assay: modified propidium iodide cytotoxicity assay; conditions: Homo sapiens, Prostate
From the text: as §1

[26] = system: PXF 1752L; assay: modified propidium iodide cytotoxicity assay; conditions: Homo sapiens, Mesothelioma
From the text: as §1

[27] = system: MEXF 462NL; assay: modified propidium iodide cytotoxicity assay; conditions: Homo sapiens, Melanoma
From the text: as §1

[28] = system: CXF 269L; assay: modified propidium iodide cytotoxicity assay; conditions: Homo sapiens, Colon
From the text: as §1

[29] = system: BXF 1352L; assay: modified propidium iodide cytotoxicity assay; conditions: Homo sapiens, Bladder
From the text: as §1

[30] = system: NCI-H460; assay: modified propidium iodide cytotoxicity assay; conditions: Homo sapiens, Lung, non-small cell
From the text: as §1

[31] = system: MCF-7; assay: modified propidium iodide cytotoxicity assay; conditions: Homo sapiens, MCF7, Breast
From the text: as §1

[32] = system: PAXF 1657L; assay: modified propidium iodide cytotoxicity assay; conditions: Homo sapiens, Pancreas
From the text: as §1

[33] = system: 22Rv1; assay: modified propidium iodide cytotoxicity assay; conditions: Homo sapiens, Prostate
From the text: as §1

[34] = system: MEXF 276L; assay: modified propidium iodide cytotoxicity assay; conditions: Homo sapiens, MEXF276L, Melanoma
From the text: as §1

[35] = system: LIXF 575L; assay: modified propidium iodide cytotoxicity assay; conditions: Homo sapiens, Liver
From the text: as §1

[36] = system: UXF 1138L; assay: modified propidium iodide cytotoxicity assay; conditions: Homo sapiens, Uterus
From the text: as §1

[37] = system: NIH:OVCAR-3; assay: modified propidium iodide cytotoxicity assay; conditions: Homo sapiens, Ovary
From the text: as §1

[38] = system: LXFA 289L; assay: modified propidium iodide cytotoxicity assay; conditions: Homo sapiens, Lung, non-small cell
From the text: as §1

[39] = system: MEXF 1341L; assay: modified propidium iodide cytotoxicity assay; conditions: Homo sapiens, Melanoma
From the text: as §1

[40] = system: DIFI; assay: modified propidium iodide cytotoxicity assay; conditions: Homo sapiens, Colon
From the text: as §1

[41] = system: GXF 251L; assay: modified propidium iodide cytotoxicity assay; conditions: Homo sapiens, Stomach
From the text: as §1

[42] = system: PXF 1118L; assay: modified propidium iodide cytotoxicity assay; conditions: Homo sapiens, Mesothelioma
From the text: as §1

[43] = system: OVXF 899L; assay: modified propidium iodide cytotoxicity assay; conditions: Homo sapiens, Ovary
From the text: as §1

[44] = system: LNCaP; assay: modified propidium iodide cytotoxicity assay; conditions: Homo sapiens, Prostate
From the text: as §1

[45] = system: Pseudomonas aeruginosa; assay: antimicrobial activity test; conditions: at a concentration of 1.0 mg/mL
[46] = system: Bacillus subtilis; assay: antimicrobial activity test; conditions: at a concentration of 1.0 mg/mL
[47] = system: Escherichia coli; assay: antimicrobial activity test; conditions: at a concentration of 1.0 mg/mL
[48] = system: Staphylococcus aureus; assay: antimicrobial activity test; conditions: at a concentration of 1.0 mg/mL
[49] = system: Mycobacerium vaccae; assay: antimicrobial activity test; conditions: at a concentration of 1.0 mg/mL
[50] = system: Enterococcus faecalis; assay: antimicrobial activity test; conditions: at a concentration of 1.0 mg/mL

`CCCCCCC/C=C\CCCCC/C=C\N(NC(=O)COC)C(=O)CCCCCCCCC` [Hydrazidomycin B, hydrazidomycin B] was tested, and the IC50 [1] was 6.04 µM, the IC50 ([2]; Homo sapiens) was 10.7 µM and the “IC50 values in sensitive cell lines, fold lower than the mean IC50 of all cell lines tested” value [2] was roughly 8 fold. It also gave an IC50 [3] of 7.07 µM, an IC50 [4] of 1.73 µM and an IC50 [5] of 17.3 µM. The IC50 [6] was 18.2 µM, the IC50 [7] was 13.8 µM and the IC50 [8] was 10.8 µM. For the same compound, the IC50 [9] was 19.3 µM, the IC50 [10] was 0.876 µM and the IC50 [11] was 21.2 µM. It also gave an IC50 [12] of 11 µM, an IC50 [13] of 12.7 µM and an IC50 [14] of 9.19 µM. For the same compound, the IC50 [15] was 18 µM, the IC50 [16] was 19.4 µM and the IC50 [17] was 10 µM. For the same compound, the IC50 [18] was 11.6 µM, the IC50 [19] was 6.54 µM and the IC50 [20] was 5.53 µM. It also gave an IC50 [21] of 10.2 µM, an IC50 [22] of 1.41 µM and an IC50 [23] of 17.4 µM. It also gave an IC50 [24] of 14.3 µM, an IC50 [25] of 7.22 µM and an IC50 [26] of 12.7 µM. For the same compound, the IC50 [27] was 20.4 µM, the IC50 [28] was 5.94 µM and the IC50 [29] was 15.1 µM. The IC50 [30] was 17.2 µM, the IC50 [31] was 11 µM and the IC50 [32] was 20.4 µM. The IC50 [33] was 15.6 µM, the IC50 [34] was 18.3 µM and the IC50 [35] was 7.39 µM. The IC50 [36] was 18.2 µM, the IC50 [37] was 18.5 µM and the IC50 [38] was 12.6 µM. It also gave an IC50 [39] of 14.9 µM, an IC50 [40] of 10.2 µM and an IC50 [41] of 1.54 µM. The IC50 [42] was 30 µM, the IC50 [43] was 19.1 µM and the IC50 [44] was 14.1 µM. For the same compound, the antimicrobial activity [45] was “no antimicrobial activity”, the antimicrobial activity [46] was “no antimicrobial activity” and the antimicrobial activity [47] was “no antimicrobial activity”. For the same compound, the antimicrobial activity [48] was “no antimicrobial activity”, the antimicrobial activity [49] was “no antimicrobial activity” and the antimicrobial activity [50] was “no antimicrobial activity”.
For `CCCCC/C=C\C/C=C\CCCC/C=C\N(NC(=O)COC)C(=O)CCCCCCCCC` [Hydrazidomycin C, hydrazidomycin C], the IC50 [1] was greater than 10 µM, the “inhibition of tumor cell growth” value ([1]; up to a concentration of 10 µM) was “did not show inhibition of tumor cell growth” and the antimicrobial activity [45] was “no antimicrobial activity”. The antimicrobial activity [46] was “no antimicrobial activity”, the antimicrobial activity [47] was “no antimicrobial activity” and the antimicrobial activity [48] was “no antimicrobial activity”. For the same compound, the antimicrobial activity [49] was “no antimicrobial activity” and the antimicrobial activity [50] was “no antimicrobial activity”.
With `CCCCCCCCCCCC/C=C\N(NC(=O)COC)C(=O)CCCCCCCCC` [Hydrazidomycin A, hydrazidomycin A] the IC50 [1] was 0.37 µM, the IC50 ([2]; Homo sapiens) was 0.86 µM and the IC50 ([2]; listed as (II)) was 0.857 µM. The “IC50 values in sensitive cell lines, fold lower than the mean IC50 of all cell lines tested” value [2] was “about 4 fold”, the IC50 [3] was 1.65 µM and the IC50 [4] was 0.105 µM. It also gave an IC50 [5] of 2.12 µM, an IC50 [6] of 0.898 µM and an IC50 [7] of 0.598 µM. The IC50 [8] was 0.66 µM, the IC50 [9] was 2.43 µM and the IC50 [10] was 0.471 µM. It also gave an IC50 [11] of 1.62 µM, an IC50 [12] of 1.11 µM and an IC50 [13] of 0.716 µM. For the same compound, the IC50 [15] was 1.82 µM, the IC50 [16] was 0.758 µM and the IC50 [17] was 0.933 µM. For the same compound, the IC50 [18] was 0.676 µM, the IC50 [19] was 0.464 µM and the IC50 [20] was 0.286 µM. It also gave an IC50 [21] of 0.982 µM, an IC50 [22] of 0.247 µM and an IC50 [23] of 2.31 µM. It also gave an IC50 [24] of 0.982 µM, an IC50 [25] of 0.539 µM and an IC50 [26] of 1.19 µM. The IC50 [27] was 0.765 µM, the IC50 [28] was 0.222 µM and the IC50 [29] was 2.3 µM. The IC50 [30] was 2.31 µM, the IC50 [31] was 0.782 µM and the IC50 [32] was 1.91 µM. For the same compound, the IC50 [33] was 0.882 µM, the IC50 [34] was 1.59 µM and the IC50 [35] was 0.349 µM. The IC50 [36] was 0.893 µM, the IC50 [37] was 1.1 µM and the IC50 [38] was 1.1 µM. For the same compound, the IC50 [39] was 0.936 µM, the IC50 [40] was 0.782 µM and the IC50 [41] was 0.144 µM. For the same compound, the IC50 [42] was 2.4 µM, the IC50 [43] was 1.34 µM and the IC50 [44] was 0.957 µM. The antimicrobial activity [45] was “no antimicrobial activity”, the antimicrobial activity [46] was “no antimicrobial activity” and the antimicrobial activity [47] was “no antimicrobial activity”. The antimicrobial activity [48] was “no antimicrobial activity”, the antimicrobial activity [49] was “no antimicrobial activity” and the antimicrobial activity [50] was “no antimicrobial activity”.
